Experimental data taken from patent US20250280826A1, “PLANT GROWTH PROMOTER” (KAO CORPORATION, priority 2022, published 2025).

Assay type: physicochemical
Conditions: in 100 μL of isobutyl alcohol
Protocol: The amount of BHT dissolved in 100 μL of isobutyl alcohol was changed. […] For other solvents, solubility was similarly confirmed at a ratio of BHT:solvent=1:4. […] The reagents used were those manufactured by FUJIFILM Wako Pure Chemical Corporation.

## dibutylhydroxytoluene [BHT]
  amount of BHT uniformly dissolved: up to 25 mg
